Experimental data reported in patent publication US5773569A (Affymax Technologies N.V., priority 1995, dated 1998).
Residues, ends and D or L forms follow the SMILES beside them.

Key:
[1] = biological target: T1, murine receptor (FDC-P1/ER cells) (Mus musculus, UniProt P14753); assay: cell-based; settings: IA = inactive
T1 sequence (P14753 25-507): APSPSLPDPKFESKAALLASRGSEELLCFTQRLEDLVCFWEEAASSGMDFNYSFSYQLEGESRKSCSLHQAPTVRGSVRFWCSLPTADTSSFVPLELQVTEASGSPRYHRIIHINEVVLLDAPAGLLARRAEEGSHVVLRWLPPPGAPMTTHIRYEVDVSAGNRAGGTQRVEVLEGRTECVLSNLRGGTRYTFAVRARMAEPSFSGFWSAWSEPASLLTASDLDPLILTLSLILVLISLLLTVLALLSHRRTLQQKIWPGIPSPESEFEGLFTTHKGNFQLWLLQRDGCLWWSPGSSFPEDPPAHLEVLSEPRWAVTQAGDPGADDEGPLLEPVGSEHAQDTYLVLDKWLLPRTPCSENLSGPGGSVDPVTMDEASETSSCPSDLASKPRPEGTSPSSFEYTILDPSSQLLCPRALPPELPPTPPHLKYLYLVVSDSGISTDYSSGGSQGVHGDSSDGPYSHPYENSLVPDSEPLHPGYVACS
Procedure: Sample Preparation: Peptides were resuspended in DMSO as a 1×10^-2 M stock solution and serially diluted in 10-fold increments to generate the following 100×solutions:
Two μl of each stock dilution was added to a cell well as described below in a total volume of 200 μl to generate final concentrations as follows:
(§1) Cells are harvested and resuspended in fresh medium without growth factor (erytiropoietin) for 24 hr. Cells are counted and resuspended at a concentration of 800,000 cells/ml. Approximately forty thousand cells (50μ) are added to each well of a 96 well microtiter plate. Peptide is added to each well in triplicate. A standard dose response determination is run with each series of peptides. After a forty-two hr incubation (≈2 doubling), each well is pulsed with 1 μCi/well Thymidine. Cells are incubated an additional six hr at which time cells are harvested and counted to assess thymidine incorporation as an indicator of cell proliferation.

[2] = biological target: T2, truncated human erythropoietin receptor cell line (Homo sapiens, UniProt P19235); assay: cell-based
T2 sequence (P19235 25-468 limits assumed): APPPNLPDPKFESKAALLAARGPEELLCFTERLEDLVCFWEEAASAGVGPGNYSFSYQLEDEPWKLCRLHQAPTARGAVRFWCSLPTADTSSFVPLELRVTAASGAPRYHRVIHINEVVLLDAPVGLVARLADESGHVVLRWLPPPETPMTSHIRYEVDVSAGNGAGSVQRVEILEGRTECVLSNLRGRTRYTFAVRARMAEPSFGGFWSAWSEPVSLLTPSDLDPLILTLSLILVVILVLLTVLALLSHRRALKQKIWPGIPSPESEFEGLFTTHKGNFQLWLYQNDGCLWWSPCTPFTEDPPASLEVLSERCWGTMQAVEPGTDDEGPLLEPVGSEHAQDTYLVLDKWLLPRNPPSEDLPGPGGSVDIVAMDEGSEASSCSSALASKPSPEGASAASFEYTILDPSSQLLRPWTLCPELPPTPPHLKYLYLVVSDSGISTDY
Procedure: as §1

[3] = EPO-ED50 (μM)* murine receptor, Tables 20-21
[4] = EPO-ED50 (μM), Tables 17-19, amount for half maximal level of EPO dependent proliferation

SMILES | EC50 [1, 3] | EC50 [2] | EC50 [1, 4]
CC[C@H](C)[C@H](NC(=O)[C@H](Cc1ccc(O)cc1)NC(=O)[C@H](CCC(N)=O)NC(=O)[C@H](C)NC(=O)[C@@H](NC(=O)[C@@H](N)[C@@H](C)O)[C@@H](C)CC)C(=O)N[C@H]1CSSC[C@@H](C(=O)N[C@@H](CCCNC(=N)N)C(=O)N2CCC[C@H]2C(=O)N[C@@H](CO)C(=O)N2CCC[C@H]2C(=O)N[C@@H](CCCCN)C(=O)N[C@@H](C)C(N)=O)NC(=O)[C@H](CCC(=O)O)NC(=O)[C@H](Cc2c[nH]c3ccccc23)NC(=O)[C@H]([C@@H](C)O)NC(=O)[C@H](CCC(=O)O)NC(=O)[C@@H]2CCCN2C(=O)CNC(=O)[C@H](CCSC)NC(=O)[C@H](Cc2ccc(O)cc2)NC1=O [AF11654] (HELM PEPTIDE1{T.I.A.Q.Y.I.C.Y.M.G.P.E.T.W.E.C.R.P.S.P.K.A.[am]}$PEPTIDE1,PEPTIDE1,7:R3-16:R3$$$V2.0) | 0.2 µM | 0.02 µM | –
CC(C)C[C@@H]1NC(=O)[C@@H]2CCCN2C(=O)CNC(=O)[C@H](Cc2ccccc2)NC(=O)[C@H](Cc2c[nH]cn2)NC(=O)[C@@H](NC(=O)[C@H](CO)NC(=O)[C@H](Cc2ccc(O)cc2)NC(=O)[C@@H](N)[C@@H](C)O)CSSC[C@@H](C(=O)N[C@@H](CCCCN)C(=O)N2CCC[C@H]2C(=O)N[C@@H](CCC(N)=O)C(N)=O)NC(=O)[C@H](C(C)C)NC(=O)[C@H](Cc2c[nH]c3ccccc23)NC(=O)[C@H]([C@@H](C)O)NC1=O [RWJ 61230] (HELM PEPTIDE1{T.Y.S.C.H.F.G.P.L.T.W.V.C.K.P.Q.[am]}$PEPTIDE1,PEPTIDE1,4:R3-13:R3$$$V2.0) | – | – | 2 µM
CC(C)C[C@@H]1NC(=O)[C@@H]2CCCN2C(=O)CNC(=O)[C@H](Cc2ccccc2)NC(=O)[C@H](Cc2c[nH]cn2)NC(=O)[C@@H](NC(=O)[C@H](CO)NC(=O)[C@@H](N)Cc2ccc(O)cc2)CSSC[C@@H](C(=O)N[C@@H](CCCCN)C(=O)N2CCC[C@H]2C(N)=O)NC(=O)[C@H](C(C)C)NC(=O)[C@H](Cc2c[nH]c3ccccc23)NC(=O)[C@H]([C@@H](C)O)NC1=O [RWJ 61232] (HELM PEPTIDE1{Y.S.C.H.F.G.P.L.T.W.V.C.K.P.[am]}$PEPTIDE1,PEPTIDE1,3:R3-12:R3$$$V2.0) | – | – | 20 µM
CC(C)C[C@@H]1NC(=O)[C@H](C)NC(=O)CNC(=O)[C@H](Cc2ccccc2)NC(=O)[C@H](Cc2c[nH]cn2)NC(=O)[C@@H](NC(=O)[C@H](CO)NC(=O)[C@H](Cc2ccc(O)cc2)NC(=O)[C@@H](NC(=O)CNC(=O)CN)[C@@H](C)O)CSSC[C@@H](C(=O)N[C@@H](CCCCN)C(=O)N2CCC[C@H]2C(=O)N[C@@H](CCC(N)=O)C(=O)NCC(=O)NCC(N)=O)NC(=O)[C@H](C(C)C)NC(=O)[C@H](Cc2c[nH]c3ccccc23)NC(=O)[C@H]([C@@H](C)O)NC1=O [RWJ 61277] (HELM PEPTIDE1{G.G.T.Y.S.C.H.F.G.A.L.T.W.V.C.K.P.Q.G.G.[am]}$PEPTIDE1,PEPTIDE1,6:R3-15:R3$$$V2.0) | – | – | 0.1 µM
CC(C)C[C@@H]1NC(=O)[C@@H]2CCCN2C(=O)CNC(=O)[C@H](Cc2ccccc2)NC(=O)[C@H](Cc2c[nH]cn2)NC(=O)[C@@H](NC(=O)[C@H](CO)NC(=O)[C@@H](N)Cc2ccc(O)cc2)CSSC[C@@H](C(=O)N[C@@H](CCCCN)C(N)=O)NC(=O)[C@H](C(C)C)NC(=O)[C@H](Cc2c[nH]c3ccccc23)NC(=O)[C@H]([C@@H](C)O)NC1=O [RWJ 61279] (HELM PEPTIDE1{Y.S.C.H.F.G.P.L.T.W.V.C.K.[am]}$PEPTIDE1,PEPTIDE1,3:R3-12:R3$$$V2.0) | – | – | 3 µM
CC(C)[C@@H]1NC(=O)[C@H](Cc2c[nH]c3ccccc23)NC(=O)[C@H]([C@@H](C)O)NC(=O)[C@H](C)NC(=O)[C@@H]2CCCN2C(=O)CNC(=O)[C@H](Cc2ccccc2)NC(=O)[C@H](Cc2c[nH]cn2)NC(=O)[C@@H](NC(=O)[C@H](CO)NC(=O)[C@H](Cc2ccc(O)cc2)NC(=O)[C@@H](NC(=O)CNC(=O)CN)[C@@H](C)O)CSSC[C@@H](C(=O)N[C@@H](CCCCN)C(=O)N2CCC[C@H]2C(=O)N[C@@H](CCC(N)=O)C(=O)NCC(=O)NCC(N)=O)NC1=O [RWJ 61314] (HELM PEPTIDE1{G.G.T.Y.S.C.H.F.G.P.A.T.W.V.C.K.P.Q.G.G.[am]}$PEPTIDE1,PEPTIDE1,6:R3-15:R3$$$V2.0) | – | – | 0.2 µM
CC(C)C[C@@H]1NC(=O)[C@@H]2CCCN2C(=O)CNC(=O)[C@H](Cc2ccccc2)NC(=O)[C@H](Cc2c[nH]cn2)NC(=O)[C@@H](NC(=O)[C@@H](N)Cc2ccc(O)cc2)CSSC[C@@H](C(N)=O)NC(=O)[C@H](C(C)C)NC(=O)[C@H](Cc2c[nH]c3ccccc23)NC(=O)[C@H]([C@@H](C)O)NC1=O [RWJ 61513] (HELM PEPTIDE1{Y.C.H.F.G.P.L.T.W.V.C.[am]}$PEPTIDE1,PEPTIDE1,2:R3-11:R3$$$V2.0) | – | – | 2 µM
CC(C)C[C@@H]1NC(=O)[C@@H]2CCCN2C(=O)CNC(=O)[C@H](Cc2ccccc2)NC(=O)[C@H](Cc2c[nH]cn2)NC(=O)[C@@H](NC(=O)[C@H](CO)NC(=O)[C@H](Cc2ccc(O)cc2)NC(=O)[C@@H](N)[C@@H](C)O)CSSC[C@@H](C(=O)N[C@@H](CCCCN)C(=O)N2CCC[C@H]2C(=O)N[C@@H](CCC(N)=O)C(=O)NCC(=O)NCC(N)=O)NC(=O)[C@H](C(C)C)NC(=O)[C@H](Cc2c[nH]c3ccccc23)NC(=O)[C@H]([C@@H](C)O)NC1=O [RWJ 61597] (HELM PEPTIDE1{T.Y.S.C.H.F.G.P.L.T.W.V.C.K.P.Q.G.G.[am]}$PEPTIDE1,PEPTIDE1,4:R3-13:R3$$$V2.0) | – | – | 2 µM
CSCC[C@@H]1NC(=O)[C@H](Cc2c[nH]cn2)NC(=O)[C@@H](NC(=O)[C@H](C)NC(=O)[C@H](Cc2ccc(O)cc2)NC(=O)[C@H](CC(C)C)NC(=O)CNC(=O)CN)CSSC[C@@H](C(=O)N[C@@H](CCC(N)=O)C(=O)N2CCC[C@H]2C(=O)N[C@@H](CC(C)C)C(=O)N[C@@H](CCCNC(=N)N)C(=O)NCC(N)=O)NC(=O)[C@H](C(C)C)NC(=O)[C@H](Cc2c[nH]c3ccccc23)NC(=O)[C@H]([C@@H](C)O)NC(=O)[C@H](CCSC)NC(=O)[C@@H]2CCCN2C(=O)CNC1=O [RWJ 61718] | 0.15 µM | 0.08 µM | 0.1 µM
CSCC[C@@H]1NC(=O)[C@H](CCCNC(=N)N)NC(=O)[C@@H](NC(=O)[C@H](CC(C)C)NC(=O)[C@H](Cc2ccc(O)cc2)NC(=O)[C@H](CCC(=O)O)NC(=O)CNC(=O)CN)CSSC[C@@H](C(=O)N[C@H](C(=O)N2CCC[C@H]2C(=O)N[C@H](C(=O)NCC(=O)NCC(N)=O)C(C)C)[C@@H](C)O)NC(=O)[C@H](C(C)C)NC(=O)[C@H](Cc2c[nH]c3ccccc23)NC(=O)[C@H]([C@@H](C)O)NC(=O)[C@H](CCSC)NC(=O)[C@@H]2CCCN2C(=O)CNC1=O [RWJ 61719] (HELM PEPTIDE1{G.G.E.Y.L.C.R.M.G.P.M.T.W.V.C.T.P.V.G.G.[am]}$PEPTIDE1,PEPTIDE1,6:R3-15:R3$$$V2.0) | – | – | 9 µM
CC(C)C[C@@H]1NC(=O)[C@@H]2CCCN2C(=O)CNC(=O)[C@H](Cc2ccccc2)NC(=O)[C@H](Cc2c[nH]cn2)NC(=O)[C@@H](NC(=O)[C@H](CO)NC(=O)[C@H](Cc2ccc(O)cc2)NC(=O)[C@H](CCCCN)NC(=O)[C@H](CCCNC(=N)N)NC(=O)CNC(=O)[C@@H](N)CC(C)C)CSSC[C@@H](C(=O)N[C@@H](CCC(N)=O)C(=O)N2CCC[C@H]2C(=O)N[C@@H](C)C(=O)N[C@@H](CCCCN)C(=O)N[C@@H](CCCCN)C(=O)N[C@@H](CC(=O)O)C(N)=O)NC(=O)[C@H](C(C)C)NC(=O)[C@H](Cc2c[nH]c3ccccc23)NC(=O)[C@H]([C@@H](C)O)NC1=O [RWJ 61757] (HELM PEPTIDE1{L.G.R.K.Y.S.C.H.F.G.P.L.T.W.V.C.Q.P.A.K.K.D.[am]}$PEPTIDE1,PEPTIDE1,7:R3-16:R3$$$V2.0) | 0.11 µM | 0.15 µM | –
CC(C)C[C@@H]1NC(=O)[C@@H]2CCCN2C(=O)CNC(=O)[C@H](Cc2ccccc2)NC(=O)[C@H](Cc2c[nH]cn2)NC(=O)[C@@H](NC(=O)[C@H](CO)NC(=O)[C@H](Cc2ccc(F)cc2)NC(=O)[C@@H](NC(=O)CNC(=O)CN)[C@@H](C)O)CSSC[C@@H](C(=O)N[C@@H](CCCCN)C(=O)N2CCC[C@H]2C(=O)N[C@@H](CCC(N)=O)C(=O)NCC(=O)NCC(N)=O)NC(=O)[C@H](C(C)C)NC(=O)[C@H](Cc2c[nH]c3ccccc23)NC(=O)[C@H]([C@@H](C)O)NC1=O [RWJ 62020, GGTXSCHFGPLTWVCKPQGG] (HELM PEPTIDE1{G.G.T.[O=C([C@H](Cc1ccc(F)cc1)N[*:1])[*:2]].S.C.H.F.G.P.L.T.W.V.C.K.P.Q.G.G.[am]}$PEPTIDE1,PEPTIDE1,6:R3-15:R3$$$V2.0) | 1 µM | 0.1 µM | –
